Laboratory results published in patent EP4324461A1, “(E)-N-CINAMOYLAMINOALKANOLES WITH MELANOGENESIS INHIBITORY ACTIVITY” (UNIWERSYTET JAGIELLONSKI, priority 2022, dated 2024).
In brackets after ≈: the same amount, converted by molar mass. Read-outs that look alike come from different tables or passages of the source.

Tests used:
tyrosinase [1] = settings: reference [11], cited from earlier work
tyrosinase [2] = settings: cited from earlier work; for mechanism of tyrosinase inhibition: references [6], [7]
[3] = 7-day application of a cream to the skin before exposure to UV radiation; compared to untreated skin; reference [8]; cited from earlier work
[4] = tested on: Balb/c 3T3 murine fibroblast cell line; assay: Phototoxicity in Balb/c 3T3 fibroblasts (neutral red uptake)
Method: Balb/c 3T3 cells, which are an immortalized murine fibroblast cell line, were purchased at ATTC and cultured in the medium recommended by the manufacturer (DMEM GlutaMAX, newborn calf serum (BCS), antibiotics). After multiplication, cells were placed in 96-well plates, which were incubated for 24 hours, after which all wells of the plates were washed with 150 µL of balanced salt solution (HBSS). Then, after drying the plates, 100 µL of a solution of the tested compounds in HBSS with 2% FBS was added to each well and incubated for an hour. After this time, some of the plates were irradiated using the Suntest CPS+ sunlight simulator from Atlas with appropriate filters cutting off radiation with a wavelength <320 nm (UVA radiation intensity 5 J/cm^2). The second part of the plates was placed in radiation-free conditions for the same period of time. After the exposure time, the liquid was removed from all plates and the wells were washed twice with 150 µL of HBSS, then supplemented with fresh culture medium and incubated for 24 hours in an incubator (37 °C, 5% CO2). Viability was assessed in the neutral red uptake test, which is based on the ability of the dye to penetrate only into living cells. Dye uptake was confirmed by absorbance measurement at 540 nm. […] The appropriate coefficients were also calculated: mean phototoxic effect (MPE) and photoirritation factor (PIF). PIF is the ratio of the IC50 values of unirradiated to irradiated cells, while MPE is based on the comparison of concentration-response curves. […]

[5] = tested on: reconstituted human epidermis EpiDerm; settings: 21 h, 0.01 %
Method: An epidermis with an area of 0.6 cm^2 was used. After receiving the tissue, the inserts were transferred to fresh medium and incubated in an incubator (5% CO2, 37 °C). All work during epidermis culture and application of the tested compounds and formulations was carried out in a laminar air flow chamber, using aseptic principles and sterile reagents and utensils. […] The applied solutions and formulation were spread on the surface of the inserts using a sterile glass bulb headed Pasteur pipette. The plates were incubated in the incubator for 21 hours, after which the inserts were transferred to new 6-well plates with 0.9 mL DBPS. 1 plate was exposed to UVA radiation at a dose of 6 J/cm^2 using a solar light simulator (Solar Simulator, Atlas) as its source (+UVA plate). The second plate was placed in a dark place outside the incubator for the same period of time (-UVA plate). After exposure, inserts from both plates were rinsed with DPBS, dried with a sterile cotton bud and placed in new plates containing 0.9 mL of fresh growth medium and incubated for 21 hours. After this time, the MTT test was performed by placing the inserts in 0.3 mL of MTT solution in DMEM medium (concentration 1 mg/mL) for 3 hours. After this time, the formed formazan was extracted into isopropanol and the absorbance of all samples was read at 270 nm. […]

tyrosinase from mushroom = assay: Inhibition of commercial mushroom tyrosinase (L-DOPA or L-tyrosine substrate); assay type: biochemical
Method: The following substrates were used for the enzymatic reaction: L-tyrosine and L-3,4-dihyroxyphenylalanine (L-DOPA). Both substrates were used in independent experiments. According to the literature, the use of L-DOPA enables the assessment of tyrosinase diphenolase activity, and L-tyrosine - the tyrosinase monophenolase activity. The determinations were performed in 96-well plates, in each well there was placed: 170 µL or 127.5 µL of 50 mM phosphate buffer (pH = 6.8) with tyrosinase (1U/well or 3U/well) and 10 µL of a solution of the tested compound in DMSO (the final concentration in the well was 500 µM, 250 µM or 125 µM). The negative control used 10 µL of pure solvent (DMSO). To initiate the reaction, an appropriate substrate was added: L-tyrosine (62.5 µL of solution in phosphate buffer) or L-DOPA (20 µL of solution in phosphate buffer). After a 25-minute incubation, the absorbance was measured at 475 nm using a microplate reader. The percentage of inhibition of tyrosinase activity was calculated using the formula: [(AC -AT)/AC] × 100, where AC - is the absorbance of the negative control, AT - is the absorbance of the sample containing the tested compound.

E. coli WP2 = assay: Ames microplate test, E. coli WP2; settings: without S9;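 note: bacteria treated 90 min at 37 °C in 24-well plates, then indicator medium dispensed to 384-well plates and incubated 48 h before yellow-well counting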
Method: (§3) The study used the Ames microplate test (Ames MPF™ Penta 2 by Xenometrix, Allschwil, Switzerland). Growth medium, exposure medium, indicator medium, positive controls, hepatic microsomal fraction, NADP, glucose-6-phosphate, Salmonella typhimurium and Escherichia coli strains were components of the purchased experimental kit. Bacteria were grown overnight in growth medium. They were then exposed to the test compound at the appropriate concentration in exposure medium without or with the rat microsomal fraction S9 in 24-well plates for 90 min at 37 °C with shaking. Then, indicator medium was added to the wells and pipetted into 384-well plates, which were incubated for 48 hours at 37 °C without shaking. Results were assessed by counting the wells in which the medium turned yellow for each experimental condition.

S. typhimurium TA98 = assay: Ames microplate test, TA98; assay type: cell-based, Salmonella typhimurium; settings: without S9;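 note: reference level is the mean solvent-control yellow wells plus SD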
Method: (§1) Bacteria were grown overnight in growth medium.
(§2) Table 9. Ames microplate test results.

[6] = Lipophilicity coefficient RM0 by reversed phase thin layer chromatography; assay type: physicochemical; settings: RP-18 TLC, methanol / 100 mM phosphate buffer pH = 7.4
Method: Confirmation of the identity and purity of the obtained compounds consisted in the registration and interpretation of ^1H NMR and ^13C NMR spectra (the spectra were recorded using an ECZR 500 MHz (JEOL) series FT-NMR spectrophotometer), as well as the registration and interpretation of LC-MS spectra (the spectra were recorded using Acquita UPLC system (Waters) coupled with a Waters TQD mass spectrometer). The melting point was measured using the open capillary method in the IA9300 device (Electrothermal). The lipophilicity coefficient RM0 was determined by reversed phase thin layer chromatography. In the study, aluminum plates 20x20 cm covered with modified silica gel RP-18 F254 (Merck) were used as the solid phase. The mobile phase consisted of solutions of methanol and 100 mM phosphate buffer (pH = 7.4), characterized by a variable methanol content ranging from 95 to 65% (v/v). The tested compounds were dissolved in methanol to obtain solutions with a concentration of 1 mg/mL. Then, 5 µL of the solutions prepared in this way were transferred to the starting line on aluminum plates, which were then placed in chromatographic chambers previously saturated with mobile phase vapors for at least 1 hour. All activities, including the development of chromatograms, were carried out at room temperature. After developing the chromatograms to approximately 1-2 cm from the end of the plate, the plates were dried and then the distance traveled by the tested compounds was visualized under UV light (λ = 254 nm). The experiment was performed in duplicate for the specified conditions. For all samples, Rf was calculated according to the formula Rf = a/b, where a - the distance traveled by the tested compound, b - the distance traveled by the mobile phase. Then, the RM parameter was calculated for all samples according to the formula RM = log(1/Rf - 1), obtaining a linear relationship between the RM values and the methanol concentration in the mobile phase. The logP coefficient was also calculated using the following computer programs: ACD/ChemSketch 2020.1.2 and ChemDraw 20.0.0.41. Table 2. The physicochemical data of the compounds are presented below

[7] = tested on: Chinese hamster ovary cell line (CHO-K1); assay: Genotoxicity in the micronucleus test in CHO-K1 cells; assay type: cell-based
S. typhimurium TA1535 = assay: Ames microplate test, TA1535; settings: without S9;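 note: bacteria exposed to compound 90 min at 37 °C, then kept 48 h at 37 °C with indicator medium in 384-well plates, scoring wells that turned yellow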
Method: as §3

[8] = tested on: Chinese hamster ovary cell line (CHO-K1); assay: Cytotoxicity in CHO-K1 cells (MTT) before the micronucleus test; assay type: cell-based; settings: 24 hours
Method: The assay was performed using a Chinese hamster ovary cell line (CHO-K1) purchased from the American Type Culture Collection (ATCC). The cells were cultured in F-12K medium with the addition of 10% fetal bovine serum (FBS) and antibiotics (streptomycin/penicillin) in an incubator at 37 °C and 5% CO2 concentration). Before the actual micronucleus test, a cytotoxicity assessment was performed to ensure that the actual test was performed only at safe concentrations. For this purpose, cells were transferred to 96-well plates and incubated with the tested compounds for 24 hours. After this time, the MTT test was performed and cell viability was assessed in comparison to the control group (cells cultured with DMSO at the same concentration as in the case of the tested samples).

[9] = tested on: B16-F10 murine melanoma cell line; assay: Cytotoxicity in B16-F10 cells (MTT); assay type: cell-based; settings: 48 h
Method: In order to determine safe doses of compounds for testing the inhibition of melanogenesis in a murine melanoma cell line, cytotoxicity tests were performed. Cytotoxicity was determined by the colorimetric method using MTT ([3-(4,5-dimethyl-2-thiazolyl)-2,5-diphenyl-2H-tetrazolium bromide, Sigma M5655). For this purpose, cells were transferred to 96-well plates in an amount of 5000/well. After 24 h of culture in an incubator in F 10-Ham medium with 1% FBS, the tested compounds at various concentrations were added to the wells together with fresh medium. DMSO was added to the medium in a negative control. The MTT test was performed after further culture for 48 h. Then the medium was removed and the formed formazan crystals were dissolved in DMSO. The absorbance was measured at 570 nm in a plate reader and the result was compared to the control (DMSO), which was 100%. The percentage of viability was calculated using the formula: [AT/AC^∗100], where AT is the absorbance of the test sample, AC - absorbance of the control sample. Table 3. Results of inhibiting the activity of monophenolase […] tyrosinase and cytotoxicity testing in B16F10 cells for the described compounds.

S. typhimurium TA100 = assay: Ames microplate test, TA100; assay type: cell-based, Salmonella typhimurium; settings: without S9;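 note: reference level is the mean solvent-control yellow wells plus SD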
Method: as §1, §2

S. typhimurium TA1537 = assay: Ames microplate test, TA1537; assay type: cell-based, Salmonella typhimurium; settings: without S9;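 note: reference level is the mean solvent-control yellow wells plus SD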
Method: as §1, §2

[10] = tested on: human reconstructed epidermis Episkin™; assay: Skin irritation test in reconstructed human epidermis (Episkin); settings: 5% aqueous, 15 min exposure, 42 h incubation
Method: The study used human reconstructed epidermis Episkin™ with an area of 1.07 cm^2. Immediately after receipt, the tissue was transferred to fresh medium and cultured in an incubator (37 °C, 5% CO2) for 18 hours. Before performing experiments, the inserts were washed with sterile PBS and placed in the wells of a 12-well plate containing 2 mL of fresh culture medium. […] After 15 min of exposure, samples were washed with PBS (5x5 mL). The inserts were transferred to plates with fresh culture medium and incubated for 42 hours (37 °C, 5% CO2). After this time, the entire medium was collected to assess the amount of released interleukin 1α (the medium was stored at -20 °C until the experiment was performed), and the inserts were transferred to the MTT solution. […] Measurement of the absorbance of the samples obtained in this way at 570 nm enabled the assessment of tissue viability according to the formula: % Viability = [OD (570 nm) for the tested compound/OD (570 nm) for the control] × 100.

[11] = reference [7], read-out: IC50, tyrosinase inhibition
[12] = reference [6], read-out: IC50, tyrosinase diphenolase activity

CCOC(=O)[C@H](Cc1ccccc1)NC(=O)C=Cc1ccc(O)c(OC)c1 (stereo in doubt) [N-[3-(4-hydroxy-3-methoxyphenyl)-1-oxo-2-propen-1-yl]-L-phenylalanine ethyl ester]
type of inhibition (tyrosinase [1]): mixed type of inhibition
IC50 (tyrosinase [1]; read-out: IC50, tyrosinase inhibition): 0.185 ± 0.005 µM

O=C(O)C=Cc1ccc(Cl)cc1Cl [2,4-dichlorocinnamic acid]
IC50 (tyrosinase [2]; [11]): 295 µM
mechanism of tyrosinase inhibition (tyrosinase [2]): reversible non-competitive mechanism

O=C(O)C=Cc1ccccc1Cl [2-Chlorocinnamic acid]
IC50 (tyrosinase [2]; [11]): 765 µM
mechanism of tyrosinase inhibition (tyrosinase [2]): reversible non-competitive mechanism

O=C(O)C=Cc1ccc(O)cc1 [4-Hydroxycinnamic acid]
IC50 (tyrosinase [2]; [12]): 500 µM
inhibition of erythema formation [3]: 77%

COc1ccc(C=CC(=O)O)cc1 [4-methoxycinnamic acid]
IC50 (tyrosinase [2]; [12]): 420 µM

CN(C)CCCN1c2ccccc2Sc2ccc(Cl)cc21 [Chlorpromazine, reference compound]
phototoxic potential [4]: clearly indicate its phototoxic potential
IC50 ([4]; Mus musculus, BALB/c3T3): 18.6 µg/mL (≈ 58.2 µM)
MPE ([4]; mouse, 1 h): 0.499
PIF ([4]; mouse, 1 h): 25.618
Viability [% relative to water] ± SD [5]: 99.52±9.41 % relative to water

O=C(O)C=Cc1ccccc1 [Cinnamic acid]
mechanism of tyrosinase inhibition (tyrosinase [2]): non-competitive inhibitor

CC(CO)NC(=O)/C=C/c1ccc(Cl)cc1 (stereo not shown) [Compound A-102, (2E)-3-(4-chlorophenyl)-N-(1-hydroxypropan-2-yl)prop-2-enamide]
Tyrosinase inhibition with L-DOPA [%] (tyrosinase from mushroom; L-DOPA): 53.02±1.99% (500 µM)
IC50 (tyrosinase from mushroom; L-DOPA, read-out: Tyrosinase inhibition with L-DOPA, IC50): 440 µM
Tyrosinase inhibition with L-tyrosine [%] (tyrosinase from mushroom; L-tyrosine): 75.45±1.80% (500 µM)
IC50 (tyrosinase from mushroom; L-tyrosine, read-out: Tyrosinase inhibition with L-tyrosine, IC50): 164 µM
Increase in the number of yellow wells compared to the reference level (E. coli WP2; 0.5 mM): 0.48
Increase in the number of yellow wells compared to the reference level (E. coli WP2; 1.0 mM): 1.03
Increase in the number of yellow wells compared to the reference level (E. coli WP2; 2.0 mM): 0.79
Increase in the number of yellow wells compared to the reference level (S. typhimurium TA98; 0.5 mM): 0.24
Increase in the number of yellow wells compared to the reference level (S. typhimurium TA98; 1.0 mM): 0.24
Increase in the number of yellow wells compared to the reference level (S. typhimurium TA98; 2.0 mM): 0.35
RM0 [6]: 2.12
DB (dicentric bridges in 1000 binucleate cells) ([7]; 100 µM): 4.0 ± 2.8
MN (number of micronuclei in 1000 binucleate cells) ([7]; 100 µM): 10.5 ± 2.1
NB (nuclear buds in 1000 binucleate cells) ([7]; 100 µM): 5.5 ± 2.1
NDI (nuclear division index) ([7]; 100 µM): 1.54
DB (dicentric bridges in 1000 binucleate cells) ([7]; 150 µM): 2.5 ± 2.1
MN (number of micronuclei in 1000 binucleate cells) ([7]; 150 µM): 6.5 ± 2.1
NB (nuclear buds in 1000 binucleate cells) ([7]; 150 µM): 6.5 ± 2.1
NDI (nuclear division index) ([7]; 150 µM): 1.54
DB (dicentric bridges in 1000 binucleate cells) ([7]; 200 µM): 3.0 ± 1.4
MN (number of micronuclei in 1000 binucleate cells) ([7]; 200 µM): 8.5 ± 0.7
NB (nuclear buds in 1000 binucleate cells) ([7]; 200 µM): 4.0 ± 1.4
NDI (nuclear division index) ([7]; 200 µM): 1.60
Increase in the number of yellow wells compared to the reference level (S. typhimurium TA1535; 0.5 mM): 0.55
Increase in the number of yellow wells compared to the reference level (S. typhimurium TA1535; 1.0 mM): 0.14
Increase in the number of yellow wells compared to the reference level (S. typhimurium TA1535; 2.0 mM): 0.89
% Viability [mean] ([8]; 100 µM): 84.7%
% Viability [mean] ([8]; 150 µM): 69.9%
% Viability [mean] ([8]; 200 µM): 87.2%
Cytotoxicity study in B16F10 cells % viability ([9]; 150 µM): 80.6%
Cytotoxicity study in B16F10 cells % viability ([9]; 200 µM): 83.5%
Cytotoxicity study in B16F10 cells % viability ([9]; 250 µM): 75.7%
Increase in the number of yellow wells compared to the reference level (S. typhimurium TA100; 0.5 mM): 1.08
Increase in the number of yellow wells compared to the reference level (S. typhimurium TA100; 1.0 mM): 0.75
Increase in the number of yellow wells compared to the reference level (S. typhimurium TA100; 2.0 mM): 0.92
Increase in the number of yellow wells compared to the reference level (S. typhimurium TA1537; 0.5 mM): 0.33
Increase in the number of yellow wells compared to the reference level (S. typhimurium TA1537; 1.0 mM): 0.00
Increase in the number of yellow wells compared to the reference level (S. typhimurium TA1537; 2.0 mM): 1.00

CCCCCCCCCCCCOS(=O)(=O)[O-].[Na+] [SDS, sodium lauryl sulfate]
tissue viability ([10]; compared to the negative control (PBS and PEG400)): 23.8%
IL-1α concentration in the culture medium ([10]; positive control): > 250 pg/mL
